Target: PDE5 (Homo sapiens, UniProt O76074)
Assay: cGMP PDE activity
Type: biochemical

IC50: ~100 µM
SMILES: CSc1ccc(/C=C2/C(C)=C(CC(=O)O)c3cc(F)ccc32)cc1 [SS, sulindac sulfide]

Source: article PMC3151326 (2011)
